Structures can show the parent of a compound that is named as a salt.
Molecular target: T1, human GlyT-1b (Homo sapiens, UniProt P48067)
T1 construct: expressed in transfected cells
T1 sequence (P48067 1-652 isoform P48067-3): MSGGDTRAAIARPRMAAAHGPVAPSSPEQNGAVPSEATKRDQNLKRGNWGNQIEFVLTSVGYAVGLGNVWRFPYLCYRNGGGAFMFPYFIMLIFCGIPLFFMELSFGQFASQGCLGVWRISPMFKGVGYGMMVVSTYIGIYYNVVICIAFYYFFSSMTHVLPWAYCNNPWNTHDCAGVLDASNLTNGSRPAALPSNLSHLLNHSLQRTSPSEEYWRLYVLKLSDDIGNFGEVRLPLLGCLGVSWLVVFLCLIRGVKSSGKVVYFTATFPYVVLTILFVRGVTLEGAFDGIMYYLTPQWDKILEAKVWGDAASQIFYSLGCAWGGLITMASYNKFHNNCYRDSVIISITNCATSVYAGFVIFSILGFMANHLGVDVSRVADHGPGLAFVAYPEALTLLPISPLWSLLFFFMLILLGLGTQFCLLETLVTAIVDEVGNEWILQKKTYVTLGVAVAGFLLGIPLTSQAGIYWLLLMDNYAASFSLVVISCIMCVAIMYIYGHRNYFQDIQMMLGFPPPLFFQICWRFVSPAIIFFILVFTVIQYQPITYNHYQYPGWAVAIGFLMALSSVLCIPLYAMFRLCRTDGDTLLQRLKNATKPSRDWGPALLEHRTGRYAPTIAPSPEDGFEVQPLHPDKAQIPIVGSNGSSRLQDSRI
Assay: [3H]-Glycine uptake in cells transfected with human GlyT-1b
Assay type: cell-based
Conditions: 6 min pre-incubation, 10 nM 3H-glycine, 15 min, read-out: IC50 GlyT-1b (Inhibition of Glycine Transport by hGlyT-)
Experimental: The compounds of the invention were tested in a well-recognised and reliable test measuring glycine uptake:
Cells transfected with the human GlyT-1b were seeded in 96 well plates. Prior to the experiment the cells were washed twice in HBS (10 mM Hepes-tris (pH 7.4), 2.5 mM KCl, 1 mM CaCl2, 2.5 mM MgSO4,) and pre-incubated with test compound for 6 minutes. Afterwards, 10 nM ^3H-glycine was added to each well and the incubation was continued for 15 minutes. The cells were washed twice in HBS. Scintillation fluid was added and the Plates were counted on a Trilux (Wallac) scintillation counter.

Row | IC50 [µM] | Compound
1 | 2.2 | Cc1ccc(-c2ccc3c(c2)COC3(CCN(C)CC(=O)O)c2ccc(Cl)cc2)cc1 (centres unmarked) [Compound 3al, N-{3-[1-(4-Chloro-phenyl)-5-(4-methyl-phenyl)-1,3-dihydro-isobenzofuran-1-yl]-ethyl}-N-methyl-glycine]
2 | 5.5 | C[C@@H](C(=O)O)N(C)CCCC1(c2ccc(Cl)cc2)OCc2cc(Cl)ccc21 (some centres unmarked) [Compound 3l, N-{3-[5-chloro-1-(4-chlorophenyl)-1,3-dihydroisobenzofuran-1-yl]-1-propyl}-N-methylalanine hydrochloride]
3 | 0.95 | CN(CCC1(c2ccc(Cl)cc2)OCc2cc(-c3cc(Cl)ccc3Cl)ccc21)CC(=O)O (centres unmarked) [Compound 4k, N-{3-[1-(4-Chloro-phenyl)-5-(2,5-dichloro-phenyl)-1,3-dihydro-isobenzofuran-1-yl]-ethyl}-N-methyl-glycine]
4 | 0.47 | C[C@@H](C(=O)O)N(C)CCCC1(c2ccc(Cl)cc2)CCc2cc(Cl)ccc21 (some centres unmarked) [Compound 3aa, N-{3-[5-Chloro-1-(4-chloro-phenyl)-indan-1-yl]-propyl}-N-methylalanine hydrochloride]
5 | 5.7 | Cc1cc(C2(CCCN(C)CC(=O)O)OCc3cc(C#N)ccc32)ccc1F (centres unmarked) [Compound 3t, N-{3-[5-cyano-1-(3-methyl-4-fluorophenyl)-1,3-dihydroisobenzofuran-1-yl]-1-propyl}-N-methylglycine hydrochloride.]
6 | 8.6 | COc1ccc(C2(CCCN(C)CC(=O)O)OCc3cc(C#N)ccc32)cc1 (centres unmarked) [Compound 3v, N-{3-[5-cyano-1-(4-methoxyphenyl)-1,3-dihydroisobenzofuran-1-yl]-1-propyl}-N-methylglycine hydrochloride]
7 | 1.5 | Cc1ccc(-c2ccc3c(c2)COC3(CCCN(C)CC(=O)O)c2ccc(Cl)cc2)cc1 (centres unmarked) [Compound 4d, N-{3-[1-(4-Chloro-phenyl)-5-(4-methyl-phenyl)-1,3-dihydro-isobenzofuran-1-yl]-propyl}-N-methyl-glycine]
8 | 2.2 | N-[2-(3-methyl-1-phenyl-indan-1-yl)-ethyl]-amino}-N-methyl alanine [Compound 3ak]
9 | 4 | CN(CCCC1(c2ccc(Cl)cc2)OCc2cc(Br)ccc21)CC(=O)O (centres unmarked) [Compound 3ae, N-{3-[5-Bromo-1-(4-chlorophenyl)-1,3-dihydroisobenzofuran-1-yl]-1-propyl}-N-methylglycine]
10 | 0.71 | Cc1ccccc1-c1ccc2c(c1)COC2(CCN(C)CC(=O)O)c1ccc(Cl)cc1 (centres unmarked) [Compound 4j, N-{3-[1-(4-Chloro-phenyl)-5-(2-methyl-phenyl)-1,3-dihydro-isobenzofuran-1-yl]-ethyl}-N-methyl-glycine]
11 | 7.2 | CN(CCCC1(c2ccc(Cl)cc2)OCc2ccc(Cl)cc21)CC(=O)O (centres unmarked) [Compound 3m, N-{3-[6-chloro-1-(4-chlorophenyl)-1,3-dihydroisobenzofuran-1-yl]-1-propyl}-N-methylglycine hydrochloride.]
12 | 1.1 | CN(CCCC1(c2ccc(Cl)cc2)CCc2cc(Cl)ccc21)CC(=O)O (centres unmarked) [Compound 3z, N-{3-[5-Chloro-1-(4-chloro-phenyl)-indan-1-yl]-propyl}-N-methylglycine hydrochloride]
13 | 1.2 | CN(CCC1(c2ccc(Cl)cc2)OCc2cc(-c3cccs3)ccc21)CC(=O)O (centres unmarked) [Compound 4c, N-{3-[1-(4-Chloro-phenyl)-5-(2-thiophenyl)-1,3-dihydro-isobenzofuran-1-yl]-ethyl}-N-methyl-glycine]
14 | 9.6 | Cc1ccc(C2(CCCN(C)CC(=O)O)OCc3ccc(Cl)cc32)cc1 (centres unmarked) [Compound 3n, N-{3-[6-chloro-1-(4-methylphenyl)-1,3-dihydroisobenzofuran-1-yl]-1-propyl}-N-methylglycine hydrochloride.]
15 | 3.5 | CN(CCC1(c2ccc(Cl)cc2)OC(C)(C)c2ccccc21)CC(=O)O (centres unmarked) [Compound 3af, N-{2-[1-(4-Chloro-phenyl)-3,3-dimethyl-1,3-dihydro-isobenzofuran-1-yl]-ethyl}-N-methylglycine]
16 | 4.1 | CN(CCCC1(c2ccc(Cl)cc2)OCc2c(Cl)cccc21)CC(=O)O (centres unmarked) [Compound 3k, N-{3-[4-chloro-1-(4-chlorophenyl)-1,3-dihydroisobenzofuran-1-yl]-1-propyl}-N-methylglycine hydrochloride.]

Row | Compound | IC50 [µM]
17 | N-{3-[1-(4-methylphenyl)-1,3-dihydroisobenzofuran-1-yl]-1-propyl}-N-methylglycine. hydrochloride [Compound 3f] | 5.4

From US6921774B2, “Compounds and their use as glycine transport inhibitors” (H. Lundbeck A/S, priority 2000, dated 2005)
